Key:
[1] = Metabolic test of an active body (Compound A) in plasma after oral administration to beagle dogs; type: in vivo; details: 10 mg/kg
Protocol: Compound of Example 2 of the present invention was administered to three beagle dogs orally at a dose of 10 mg/kg as an aqueous solution and then blood was withdrawn over 48 hours after administration. After centrifugation, plasma was separated and then stored at -20° C. until analysis. Compound A (compound name: 4-[4-(4-amidinophenyl)-3-oxo-1-piperazinyl]-1-piperidineacetic acid, an unexamined published Japanese patent application No. 8-333342), which is an active body produced as a metabolite of Compound of Example 2, was determined by the high performance liquid chromatography method to obtain the pharmacokinetic parameters. Compound A was also administered to the same beagle dogs at a dose of 10 mg/kg, and then plasma Compound A concentration was measured. Pharmacokinetic parameters of Compound A after the administration of Compound of Example 2 and Compound A were compared-with each other. In Table 1 it is shown the pharmacokinetic parameters of plasma Compound A after oral administration, and in FIG. 1 it is shown the plasma concentration-time profile of Compound A after oral administration.
Table 1 represents Pharmacokinetic parameters of plasma Compound A after oral administration of Compound of Example 2 and Compound A to beagle dogs at a dose of 10 mg/kg (mean of three animals±standard deviation) and FIG. 1 represents plasma concentration-time profile of Compound A.

platelets = assay: Ex vivo platelet aggregation-inhibiting activity in cynomolgus monkeys; details: 1 mg/kg via stomach tube, triggers 20 μM ADP and 10 μg/ml collagen
Protocol: Cynomolgus monkeys that had been lightly anesthetized by intramuscular administration of ketamine hydrochloride were fixed on a work-bench, and a sample compound of the present invention dissolved or suspended in a methylcellulose solution was administered into the stomach via a stomach tube at a dose of 1 mg/kg. Before the administration and after the administration at a predetermined period of time, 3 ml (containing 1/10 times by volume of sodium citrate) of the blood was collected from the animal through the femoral vein. From the blood, platelet-rich-plasma (PRP) was obtained according to the method of De Marco et al's (see J. clin. Invest., 77, 1272-1277, 1986). The PRP was adjusted at 3×10^8 /ml with an automatic blood cell counter (MEK-5158 Model, produced by Nihon Koden Co.) before use. Then, 20 μM of ADP and 10 μg/ml of bovine tendon-derived collagen (produced by Niko Bioscience Co.) as triggers to cause the aggregation of the platelets. The degree of the aggregation of the platelets was measured with a platelet aggregation meter (NBS Hematracer 801, produced by Niko Bioscience Co.). The platelet aggregation-inhibiting activity of the tested compound was represented by the inhibition percentage (%) relative to the maximum aggregation percentage of each animal before the addition of the test compound.
The test results are shown in Table 2 together with the results of the Compound A which is the active body of the compounds of the present invention.

| SMILES | AUC(0-t) at 48 h ([1]; dog, plasma, mean of three animals ± standard deviation, analyte Compound A, read-out: AUC0-48 (area under the time-concentration curve in plasma over 48 hours) of Compound A) [ng·h/mL] | Cmax ([1]; dog, plasma, mean of three animals ± standard deviation, analyte Compound A, read-out: Cmax (maximum plasma concentration) of plasma Compound A) [ng/mL] | Tmax ([1]; dog, plasma, mean of three animals ± standard deviation, analyte Compound A, read-out: Tmax (time to reach Cmax) of plasma Compound A) [h] | half-life ([1]; dog, plasma, mean of three animals ± standard deviation, analyte Compound A, read-out: t1/2 (elimination half life) of plasma Compound A (converted)) [h] | Platelet aggregation-inhibiting ratio after 3 hours (platelets) [%] | Platelet aggregation-inhibiting ratio after 6 hours (platelets) [%] | Platelet aggregation-inhibiting ratio after 9 hours (platelets) [%] | bioavailability of Compound A when administered as prodrug (in words) [1] | plasma residence time of Compound A when administered as prodrug (in words) [1] | t1/2 of Compound A compared with administration of Compound A (in words) [1] | Platelet aggregation-inhibiting ratio after 12 hours (platelets) [%] | Platelet aggregation-inhibiting ratio after 24 hours (platelets) [%] |
| --- | --- | --- | --- | --- | --- | --- | --- | --- | --- | --- | --- | --- |
| N=C(N)c1ccc(N2CCN(C3CCN(CC(=O)O)CC3)CC2=O)cc1 [Compound A, 4-[4-(4-amidinophenyl)-3-oxo-1-piperazinyl]-1-piperidineacetic acid] | 3550 ± 838 | 748 ± 175 | 1.7 ± 0.6 | 2.1 | 19.7 ± 9.4 | 16.3 ± 7.5 | 14.2 ± 5.9 | – | – | – | – | – |
| CCOC(=O)CN1CCC(N2CCN(c3ccc(C(=N)NO)cc3)C(=O)C2)CC1 [Example 2, ethyl 4-[4-(4-hydroxyamidinophenyl)-3-oxo-1-piperazinyl]-1-piperidineacetate] | – | – | – | – | 24.7 ± 23.7 | 66.3 ± 15.4 | 88.0 ± 11.0 | increase | increase | greatly prolonged | 89.0 | 54.0 ± 9.0 |
| CCOC(=O)CN1CCC(N2CCN(c3ccc(C(=N)NC(=O)OC)cc3)C(=O)C2)CC1 [Example 7, Ethyl 4-[4-(4-methoxycarbonylamidinophenyl)-3-oxo-1-piperazinyl]-1-piperidineacetate] | – | – | – | – | 9.0 ± 5.7 | 42.0 ± 14.7 | 60.0 ± 15.6 | – | – | – | 64.3 | 26.0 ± 2.9 |
